Results from ChEMBL document CHEMBL1201862, “PubChem BioAssay data set” (2004).
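Grown in 96-well plates, cells were treated for 48 hours with each compound at five concentrations. Insufficient inhibition: endpoint recorded as highest concentration tested. The concentration for 50% growth inhibition is given as GI50.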 Active and inactive are the calls of the source. Cut-off read from the data, not from the text of the source: active = GI50 up to about 1.1 µM and inactive = higher.

What was measured:
Assay in all cases: inhibition of tumour cell growth, NCI panel, 48 h
[1] = test system: T47D
[2] = test system: BT-549
[3] = test system: DMS-114
[4] = test system: DMS-273
[5] = test system: HOP-18
[6] = test system: KM-20L2
[7] = test system: M19-MEL
[8] = test system: XF498
[9] = test system: RXF 631

Row | Structure (SMILES) | GI50 [1] | GI50 [2] | other results
1 | N=C1N(c2ccccc2)C(=S)/C(=N/c2ccccc2)N1c1ccccc1 | 2.57 µM (inactive) |  | 
2 | O=C1Oc2ccccc2C(=O)/C1=C1/C=C(c2ccccc2)SS1 | > 100 µM (inactive) | > 100 µM (inactive) | 
3 | CCC1CCN/C(=N/S(=O)(=O)c2cc(C)c(Cl)cc2S)N1 (configuration not stated) | 26.8 µM (inactive) | 17.7 µM (inactive) | 
4 | Cc1cc(Cc2c(C)c(C)c(Cc3cc(C)cc(C(C)(C)C)c3O)c(C)c2C)c(O)c(C(C)(C)C)c1 | > 100 µM (inactive) | > 100 µM (inactive) | 
5 | CC(=O)c1ccc2c(c1)c1c(C)c3c[n+](C)ccc3c(C)c1n2C |  |  | GI50 [3]: 2.14 µM (inactive); GI50 [4]: 2.39 µM (inactive); GI50 [5]: 17.2 µM (inactive); GI50 [6]: 17.1 µM (inactive); GI50 [7]: 4.79 µM (inactive); GI50 [8]: 2.53 µM (inactive)
6 | C=C1C(=O)O[C@H]2C(=O)[C@H](C)CCC[C@@](C)(O)/C=C\C[C@@]3(C)O[C@@H]3C[C@@H]12 | 23.7 µM (inactive) |  | 
7 | COCOc1c(C(O[Si](C)(C)C(C)(C)C)c2cnc(Sc3ccccc3)n2C)ccc(OC)c1OC (configuration not stated) | 0.256 µM (active) | 1.69 µM (inactive) | 
8 | Clc1ccc(C2ON=C(c3ccccc3)N2C23CC4CC(CC(C4)C2)C3)cc1 (configuration not stated) | > 10 µM (inactive) | > 10 µM (inactive) | 
9 | CCNC(=O)Nc1cccc(NC(=O)NCC)n1 | > 100 µM (inactive) | > 100 µM (inactive) | 
10 | ClC1=C(Cc2ccccc2)Cc2ccc3c(c21)CCC3 | 18.5 µM (inactive) | 31.1 µM (inactive) | 
11 | C=C1CC(C)(c2ccc(Nc3nc4ccccc4c4occc34)cc2)OC1=O (configuration not stated) | 3.03 µM (inactive) | 2.37 µM (inactive) | 
12 | CCC(C#N)NCc1cccc(CNC(C#N)CC)c1 (configuration not stated) | > 100 µM (inactive) | > 100 µM (inactive) | 
13 | COC(=O)c1cc(OS(=O)(=O)C(F)(F)F)c(=O)n2c1CCCC2 | > 100 µM (inactive) | > 100 µM (inactive) | 
14 | CSc1n[n+](C)cc(N)c1N | > 100 µM (inactive) | 87.1 µM (inactive) | 
15 | c1ccc(C2C3=C(c4ccccc4CC3)N3c4cc5c(cc4=NC34CCCCC24)Nc2ccccc2N=5)cc1 (configuration not stated) | 7.53 µM (inactive) | > 10 µM (inactive) | 
16 | Cc1ccc(Nc2nc(=S)[nH]c3[nH]ncc23)cc1 | 66.1 µM (inactive) | > 100 µM (inactive) | 
17 | Cc1ccc(Cc2nn(C)c(=O)n2-n2cccc2)cc1 | > 100 µM (inactive) | > 100 µM (inactive) | 

Row | Structure (SMILES) | GI50 [1] | GI50 [2] | other results
18 | Cc1nc(-c2nc([N+](=O)[O-])c([N+](=O)[O-])[nH]2)cs1 |  |  | GI50 [3]: > 100 µM (inactive); GI50 [4]: > 100 µM (inactive); GI50 [6]: > 100 µM (inactive); GI50 [7]: > 100 µM (inactive); GI50 [9]: > 100 µM (inactive); GI50 [8]: > 100 µM (inactive)
19 | Cc1sc2nc(-c3cccc([N+](=O)[O-])c3)c(/C=N/N=C(N)N)n2c1C |  | 1.5 µM (inactive) | 
20 | O=C(c1ccccc1)c1c(CC(O)c2cccnc2)n(C(=O)c2ccccc2)c2ccccc12 (configuration not stated) |  |  | GI50 [3]: 27.7 µM (inactive); GI50 [4]: 28.2 µM (inactive); GI50 [6]: 21.3 µM (inactive); GI50 [7]: 19.7 µM (inactive); GI50 [8]: 13.6 µM (inactive)
21 | CO/C(C)=N/CCC1=CCCCC1 | > 100 µM (inactive) | > 100 µM (inactive) | 
22 | COCC1N=C(c2ccc(OC)c(OCc3ccccc3)c2OC)O[C@H]1c1ccccc1 (some centres not stated) |  |  | GI50 [3]: 12.2 µM (inactive); GI50 [4]: 15.8 µM (inactive); GI50 [6]: 17.9 µM (inactive); GI50 [7]: 17.4 µM (inactive)
23 | c1ccc2c(c1)ncn2CCn1ccnc1 | > 100 µM (inactive) | > 100 µM (inactive) | 
24 | CCCCCCCCCCCCCCCCCCOP(=O)([O-])OC1CC[N+](C)(C)CC1 [PERIFOSINE] | 17.9 µM (inactive) | 12.2 µM (inactive) | GI50 [3]: 12.5 µM (inactive); GI50 [4]: 2.86 µM (inactive); GI50 [6]: 2.24 µM (inactive); GI50 [7]: 4.01 µM (inactive); GI50 [8]: 15.7 µM (inactive)
25 | Cc1ccc(/N=N/c2c(O)ccc3cc(S(=O)(=O)O)ccc23)cc1 | 66.8 µM (inactive) | > 100 µM (inactive) | 
26 | CC(=O)C1(c2ccccc2)CCCN(C)CC1 (configuration not stated) | > 100 µM (inactive) | > 100 µM (inactive) | 
27 | CNC(=O)OCC1C2=C(C(=O)C(C)=C(N)C2=O)N2CC3C(N3C)C12OC (configuration not stated) | 21.9 µM (inactive) | 31.8 µM (inactive) | 
28 | COc1ccc(C)cc1C1CCC(=O)O1 (configuration not stated) |  |  | GI50 [3]: > 100 µM (inactive); GI50 [4]: > 100 µM (inactive); GI50 [5]: > 100 µM (inactive); GI50 [6]: > 100 µM (inactive); GI50 [7]: > 100 µM (inactive); GI50 [8]: 63.8 µM (inactive)
29 | O=C1c2cc3c(cc2[C@@H]2C(O)[C@H]4O[C@H]4C4CCN1C42)OCO3 (some centres not stated) |  |  | GI50 [3]: > 37.5 µM (inactive); GI50 [4]: > 37.5 µM (inactive); GI50 [6]: > 37.5 µM (inactive); GI50 [8]: > 37.5 µM (inactive)
30 | Nc1ncnc2c1ncn2C1OC(CO)CC1O (configuration not stated) |  | 29.9 µM (inactive) | 
31 | O=[N+]([O-])C(/C=C(\Cl)[N+](=O)[O-])=C(N1CCOCC1)N1CCOCC1 | 24.5 µM (inactive) |  | 
32 | N#Cc1c(N)nc(Sc2ccccc2N)c(C#N)c1-c1ccccc1 |  | 10.8 µM (inactive) | 
33 | CN(NC1OC(CO)C(O)C(O)C1O)c1ccccc1 (configuration not stated) |  |  | GI50 [4]: > 100 µM (inactive); GI50 [5]: > 100 µM (inactive); GI50 [6]: > 100 µM (inactive); GI50 [7]: > 100 µM (inactive); GI50 [8]: 16.4 µM (inactive)
